Columns and labels:
Format in all cases: in vivo
[1] = system: Spodoptera littoralis (Egyptian Cotton Leaf Worm); assay: Spodoptera littoralis systemic activity (lettuce); details: 144 h, test rate 12.5 ppm, root uptake in lettuce, 6 days after infestation, read-out: control in at least one of the three categories (mortality or growth inhibition or anti-feeding)
Text: Test compounds were applied by pipette prepared from 10,000 ppm DMSO stock solutions into 24-well plates and mixed with agar. Lettuce seeds were placed onto the agar and the multi well plate was closed by another plate which contained also agar. After 7 days the compound was absorbed by the roots and the lettuce grew into the lid plate. The lettuce leaves were then cut off into the lid plate. Spodoptera eggs were pipetted through a plastic stencil onto a humid gel blotting paper and the lid plate was closed with it. The samples were assessed for mortality, anti-feeding and growth inhibition 6 days after infestation.

[2] = system: Frankliniella occidentalis (Western Flower Thrips); assay: Frankliniella occidentalis feeding/contact activity; details: foliar, 168 h, application rate 200 ppm, mixed ages on sunflower leaf discs, 7 days after infestation
Protocol: (§1) Sunflower leaf discs were placed on agar in 24-well microtiter plates and sprayed with aqueous test solutions prepared from 10,000 DMSO stock solutions. After drying the leaf discs were infested with a Frankliniella population of mixed ages. The samples were assessed for mortality 7 days after infestation.

[3] = system: Euschistus heros (Neotropical Brown Stink Bug); assay: Euschistus heros feeding/contact activity; details: 120 h, application rate 200 ppm, N2 nymphs on soybean leaves, 5 days after infestation, read-out: control in at least one of the two categories (mortality or growth inhibition)
Protocol: Soybean leaves on agar in 24-well microtiter plates were sprayed with aqueous test solutions prepared from 10,000 ppm DMSO stock solutions. After drying the leaves were infested with N2 nymphs. The samples were assessed for mortality and growth inhibition 5 days after infestation.

[4] = system: Myzus persicae (Green Peach Aphid); assay: Myzus persicae feeding/contact activity; details: foliar, 144 h, application rate 200 ppm, sunflower leaf discs sprayed, 6 days after infestation
Protocol: Sunflower leaf discs were placed onto agar in a 24-well microtiter plate and sprayed with aqueous test solutions prepared from 10,000 ppm DMSO stock solutions. After drying, the leaf discs were infested with an aphid population of mixed ages. The samples were assessed for mortality 6 days after infestation.

[5] = system: Aphis craccivora (Black Bean Aphid); assay: Aphis craccivora mixed population, contact/feeding; details: 120 h, test rate 200 ppm, pea seedlings sprayed, 5 days after treatment
Protocol: Pea seedlings infested with mixed aged aphid population were treated with diluted test solutions in a spray chamber. 5 days after treatment, samples were assessed for mortality.

[6] = system: Carpocapsa (Cydia) Pomonella (Codling Moth); assay: Carpocapsa (Cydia) pomonella larvicide, feeding/contact; details: 336 h, test rate 50 ppm, L1 larvae on diet cubes, 14 days after infestation, read-out: control in at least one of the two categories (mortality or growth inhibition)
Protocol: Diet cubes coated with paraffin were sprayed with diluted test solutions in an application chamber. After drying off the treated cubes (10 replicates) were infested with 1 L1 larvae. Samples were incubated at 26-27° C. and checked 14 days after infestation for mortality and growth inhibition.

[7] = system: Nilaparvata lugens (Brown Plant Hopper); assay: Nilaparvata lugens larvicide, feeding/contact; details: 168 h, test rate 200 ppm, N3 nymphs on sprayed rice plants, 7 days after treatment, read-out: control in at least one of the two categories (mortality or growth inhibition)
Protocol: Rice plants were treated with the diluted test solutions in a spray chamber. After drying plants were infested with ˜20 N3 nymphs. 7 days after the treatment samples were assessed for mortality and growth inhibition.

[8] = system: Thrips tabaci (Onion thrips); assay: Thrips tabaci feeding/contact activity; details: foliar, 144 h, application rate 200 ppm, sunflower leaf discs, 6 days after infestation, read-out: control in at least one of the two categories (mortality or anti-feeding)
Protocol: as §1, with “10,000 ppm” for “10,000”, “thrips” for “Frankliniella”, “mortality, and anti-feeding 6” for “mortality 7”

[9] = system: Diabrotica balteata (corn root worm); assay: Diabrotica balteata (corn root worm), sprayed maize sprouts; details: 96 h, application rate 200 ppm, L2 larvae, 4 days after infestation, read-out: control in at least one of the two categories (mortality or growth inhibition)
Protocol: Maize sprouts placed onto an agar layer in 24-well microtiter plates were treated with aqueous test solutions prepared from 10,000 ppm DMSO stock solutions by spraying. After drying, the plates were infested with L2 larvae (6 to 8 per well). The samples were assessed for mortality and growth inhibition in comparison to untreated samples 4 days after infestation.

[10] = system: Nilaparvata lugens (Brown Plant Hopper); assay: Nilaparvata lugens larvicide, systemic into water; details: 168 h, test rate 12.5 ppm, into nutritive solution of rice plants, N3 nymphs, 7 days after infestation, read-out: control in at least one of the two categories (mortality or growth inhibition)
Protocol: Rice plants cultivated in a nutritive solution were treated with the diluted test solutions into nourishing cultivation system. 1 day after application plants were infested with ˜20 N3 nymphs. 7 days after infestation samples were assessed for mortality and growth inhibition.

[11] = system: Myzus persicae (Green Peach Aphid); assay: Myzus persicae feeding activity (sucrose solution, Parafilm); details: 120 h, test rate 12.5 ppm, in sucrose solution, 5 days after infestation
Protocol: Test compounds prepared from 10,000 ppm DMSO stock solutions were applied by pipette into 24-well microtiter plates and mixed with sucrose solution. The plates were closed with a stretched Parafilm. A plastic stencil with 24 holes was placed onto the plate and infested pea seedlings were placed directly on the Parafilm. The infested plate was closed with a gel blotting paper and another plastic stencil and then turned upside down. The samples were assessed for mortality 5 days after infestation.

[12] = system: Aphis craccivora (Black Bean Aphid); assay: Aphis craccivora mixed population, systemic/feeding; details: 120 h, test rate 12.5 ppm, pea seedlings in test solutions, 5 days
Protocol: Pea seedlings infested with mixed aged aphid population, were put into glass vials with test solutions. 5 days later, samples were assessed for mortality.

[13] = system: Plutella xylostella (Diamond Back Moth); assay: Plutella xylostella feeding/contact activity, 96-well artificial diet; details: 216 h, application rate 500 ppm, 9 days after infestation
Protocol: 1, 2, 3, 4, 17, 19, 23, 26, 39, 41, 42, 54, 55, 56 Plutella xylostella (Diamond Back Moth):Feeding/Contact Activity 96-well microtiter plates containing artificial diet were treated with aqueous test solutions, prepared from 10,000 ppm DMSO stock solutions, by a liquid handling robot. After drying, eggs (˜30 per well) were infested onto a netted lid which was suspended above the diet. The eggs hatch and L1 larvae move down to the diet. The samples were assessed for mortality 9 days after infestation.

[14] = system: Spodoptera littoralis (Egyptian Cotton Leaf Worm); assay: Spodoptera littoralis feeding/contact activity; details: foliar, 72 h, application rate 200 ppm, L1 larvae on cotton leaf discs, 3 days after infestation, read-out: control in at least one of the three categories (mortality or growth inhibition or anti-feeding)
Protocol: Cotton leaf discs were placed onto agar in 24-well microtiter plates and sprayed with aqueous test solutions prepared from 10,000 ppm DMSO stock solutions. After drying the leaf discs were infested with five L1 larvae. The samples were assessed for mortality, anti-feeding and growth inhibition 3 days after infestation.

CC(NC(=O)c1cc(C(F)(F)F)cc(C(F)(F)F)c1)c1ncnn1-c1ncccn1 (stereo not drawn) [Compound 4]
≥ 80%: percent control (mortality, anti-feedant effect or growth inhibition) at 12.5 ppm [1] | mortality at 200 ppm [2] | percent control (mortality or growth inhibition) at 200 ppm [3] | mortality at 200 ppm [4] | mortality at 200 ppm [5] | percent control (mortality or growth inhibition) at 50 ppm [6] | percent control (mortality or growth inhibition) at 200 ppm [7] | percent control (mortality, anti-feedant effect or growth inhibition) at 200 ppm [8] | percent control (mortality or growth inhibition) at 200 ppm [9] | percent control (mortality or growth inhibition) at 12.5 ppm [10] | mortality at 12.5 ppm [11] | mortality at 12.5 ppm [12] | mortality at 500 ppm [13] | percent control (mortality, anti-feedant effect or growth inhibition) at 200 ppm [14]

CC(c1ncnn1-c1ncccn1)N(C)C(=O)c1cc(C(F)(F)F)cc(C(F)(F)F)c1 (stereo not drawn) [Compound 1]
≥ 80%: percent control (mortality, anti-feedant effect or growth inhibition) at 12.5 ppm [1] | mortality at 200 ppm [2] | percent control (mortality or growth inhibition) at 200 ppm [3] | mortality at 200 ppm [4] | mortality at 200 ppm [5] | percent control (mortality or growth inhibition) at 50 ppm [6] | percent control (mortality or growth inhibition) at 200 ppm [7] | percent control (mortality, anti-feedant effect or growth inhibition) at 200 ppm [8] | percent control (mortality or growth inhibition) at 200 ppm [9] | percent control (mortality or growth inhibition) at 12.5 ppm [10] | mortality at 12.5 ppm [11] | mortality at 12.5 ppm [12] | mortality at 500 ppm [13] | percent control (mortality, anti-feedant effect or growth inhibition) at 200 ppm [14]

CC(c1ncnn1-c1ncccn1)N(CC1CC1)C(=O)c1cc(C(F)(F)F)cc(C(F)(F)F)c1 (stereo not drawn) [Compound 3]
≥ 80%: percent control (mortality, anti-feedant effect or growth inhibition) at 12.5 ppm [1] | mortality at 200 ppm [2] | percent control (mortality or growth inhibition) at 200 ppm [3] | mortality at 200 ppm [4] | mortality at 200 ppm [5] | percent control (mortality or growth inhibition) at 50 ppm [6] | percent control (mortality or growth inhibition) at 200 ppm [7] | percent control (mortality, anti-feedant effect or growth inhibition) at 200 ppm [8] | percent control (mortality or growth inhibition) at 200 ppm [9] | percent control (mortality or growth inhibition) at 12.5 ppm [10] | mortality at 12.5 ppm [11] | mortality at 12.5 ppm [12] | mortality at 500 ppm [13] | percent control (mortality, anti-feedant effect or growth inhibition) at 200 ppm [14]

Source: patent US20210068395A1, “METHODS OF APPLYING ONE OR MORE CERTAIN HETEROARYL-1,2,4-TRIAZOLE AND HETEROARYL-TETRAZOLE COMPOUNDS TO CONTROL DAMAGE ON PLANTS, PROPAGATION MATERIAL THEREOF, AND PLANT DERIVED PRODUCTS” (SYNGENTA CROP PROTECTION AG, priority 2018, published 2021)
